# Values quoted from earlier work, collected in patent US7655257B2, “Sustained delivery of an active agent using an implantable system” (Intarcia Therapeutics, Inc., priority 1996, dated 2010).
# Legend:
# [1] = tested on: prostatic tumors in Noble and Dunning male rats and DMBA-induced mammary tumors in female rats
# [2] = tested on: gonadotropin secretion
# [3] = continuous administration, humans
structure (smiles),measurement,setting,value
CCNC(=O)[C@@H]1CCCN1C(=O)[C@H](CCCNC(=N)N)NC(=O)[C@H](CC(C)C)NC(=O)[C@@H](CC(C)C)NC(=O)[C@H](Cc1ccc(O)cc1)NC(=O)[C@H](CO)NC(=O)[C@H](Cc1c[nH]c2ccccc12)NC(=O)[C@H](Cc1c[nH]cn1)NC(=O)[C@@H]1CCC(=O)N1 [Leuprolide acetate],growth of hormone-dependent tumors,[1],inhibition of the growth
same,level of LH and FSH,[2]; [3],decreased level of LH and FSH
same,testosterone in males,[2]; [3],reduced to castrate levels
same,activity when given orally,[2]; oral,not active
